The values below come from ChEMBL document CHEMBL1201862, “PubChem BioAssay data set” (2004).

SMILES strings stand for the structures.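 Grown in 96-well plates, cells were treated for 48 hours with each compound at five concentrations. Insufficient inhibition: endpoint recorded as highest concentration tested. GI50 marks 50% less growth.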 The source made the active and inactive calls. No stated cut-off is given here; in the data, active = GI50 up to about 1.1 µM and inactive = higher.

Experiment in all cases: NCI-60 cell line screen, 48 h
The subject of assay [1] is UACC-62.
Assay [2] deals with M14.
Assay [3] relates to K562.
Assay [4] relates to HT-29.
In assay [5] the test system is DU-145.
Assay [6] concerns IGROV-1.
Assay [7] concerns UACC-257.
Assay [8] has as its system MOLT-4.
Assay [9] has as its system SNB-19.
For assay [10], the system named is HL-60.
In assay [11] the test system is NCI-H522.
Assay [12] deals with COLO 205.
In assay [13] the test system is PC-3.
Assay [14] relates to MDA-MB-231.
The subject of assay [15] is MDA-N.
Assay [16] relates to LOX IMVI.
For assay [17], the system named is SF-539.
Assay [18] concerns RPMI-8226.
The test system of assay [19] is A498.
In assay [20] the test system is SF-295.

As to `CC(=N/NC(N)=S)/C(C)=N/NC(N)=S`, the GI50 in assay [1], in [2], in assay [3], in assay [4], in assay [5] and in assay [6] was > 100 µM (inactive) each time. The GI50 in assay [7], in assay [8], in [9], in assay [10], in assay [11] and in assay [12] was > 100 µM (inactive) in each case. The GI50 in assay [13], in assay [14], in assay [15], in assay [16], in assay [17] and in assay [18] was > 100 µM (inactive) in each case.
On to `O=c1ccn(C2OC(CN(O)CCC3C(CO)OC(n4ccc(=O)[nH]c4=O)C3O)C(O)C2O)c(=O)[nH]1` (stereo not given), for which the GI50 in assay [1], in [2], in [3], in assay [4], in assay [5] and in [19] was > 100 µM (inactive) in each case. Further, the GI50 in assay [6], in [7], in assay [8], in assay [9], in [10] and in [12] was > 100 µM (inactive) in each case. Moreover, the GI50 in assay [13], in assay [14], in [15], in [20] and in assay [18] was > 100 µM (inactive) each time.
As for `COC(=O)C1CCOC(C)N1C(=O)OC(C)(C)C` (stereo not given), the GI50 in assay [1], in assay [2], in assay [3], in assay [4], in assay [5] and in assay [6] was > 100 µM (inactive) each time. For the same compound, the GI50 in assay [7], in assay [8], in assay [9], in assay [10], in assay [11] and in [12] was > 100 µM (inactive) throughout. The GI50 in [13], in assay [14], in assay [15], in assay [20], in assay [16] and in assay [17] was > 100 µM (inactive) each time. Moreover, the GI50 in [18] was > 100 µM (inactive).
As to `COc1ccccc1-c1cc(=O)c2ccccc2n1C1CC1`, the GI50 in [1] is 2.77 µM (inactive); in assay [2], 4.4 µM (inactive); in [3], 9.68 µM (inactive); in assay [4], 0.0782 µM (active); in assay [5], 3.5 µM (inactive); in [6] it was 4.43 µM (inactive). Further, the GI50 was 8.2 µM (inactive) in assay [7]; 19.4 µM (inactive) in assay [8]; 4.86 µM (inactive) in assay [9]; 13.7 µM (inactive) in assay [10]; 0.865 µM (active) in [11]; 1.57 µM (inactive) in assay [12]. Besides, the GI50 in assay [13] was 4.15 µM (inactive); in assay [14] it was 3.76 µM (inactive); in assay [15] it was 4.06 µM (inactive); in assay [20], 2 µM (inactive); in assay [16], 3.89 µM (inactive); in [17], 4.6 µM (inactive). In [18], the GI50 is 1.71 µM (inactive).
As to `CCN(CC)CCCC(C)Nc1cc(/C=C/c2ccc(Cl)cc2)nc2cc(N(C)C)ccc12` (stereo not given), the GI50 in assay [1] is 2.52 µM (inactive); in [2] it was 1.61 µM (inactive); in assay [3] it was 0.272 µM (active); in assay [4] it was 1.34 µM (inactive); in assay [5], 1.66 µM (inactive); in assay [19], 1.69 µM (inactive). Also, the GI50 in assay [6] was 2 µM (inactive); in [8], 1.19 µM (inactive); in assay [9] it was 1.82 µM (inactive); in [10] it was 1.72 µM (inactive); in assay [13], 1.41 µM (inactive); in assay [14], 1.22 µM (inactive). For the same compound, the GI50 in assay [15] is 1.47 µM (inactive); in assay [20], 1.9 µM (inactive); in assay [17], 2.15 µM (inactive).
`Cc1ccsc1/C=N/Nc1ncccn1`: the GI50 in assay [1], in assay [2], in assay [3], in [4], in assay [5] and in assay [19] was > 100 µM (inactive) each time. For the same compound, the GI50 in [6], in assay [7], in [8], in assay [9], in assay [10] and in assay [12] was > 100 µM (inactive) throughout. Moreover, the GI50 in assay [13], in [14], in [15], in assay [20], in assay [16] and in assay [18] was > 100 µM (inactive) each time.
Take `BrCC[P+](c1ccccc1)(c1ccccc1)c1ccccc1`: the GI50 was 6.58 µM (inactive) in [1]; 4.15 µM (inactive) in assay [2]; 1.77 µM (inactive) in assay [3]; 13.3 µM (inactive) in assay [4]; 6.49 µM (inactive) in [5]; 11.4 µM (inactive) in assay [19]. Further, the GI50 in [6] was 13.3 µM (inactive); in assay [7] it was 3.7 µM (inactive); in assay [8], 4.43 µM (inactive); in assay [9], 21.4 µM (inactive); in [10] it was 2.25 µM (inactive); in assay [12], 2.87 µM (inactive). The GI50 in [13] was 5.21 µM (inactive); in assay [14], 18.3 µM (inactive); in [15] it was 2.61 µM (inactive); in assay [20], 30.8 µM (inactive); in assay [16], 4.23 µM (inactive); in assay [17], 15 µM (inactive). Besides, the GI50 in [18] is 0.948 µM (active).
As to `Cc1nn(C(=O)c2ccc(Cl)cc2)c2c1C(c1ccccc1[N+](=O)[O-])SC(=N)N2` (stereo not given), the GI50 in assay [1], in [2], in assay [3], in assay [4], in [5] and in assay [6] was > 10 µM (inactive) throughout. Further, the GI50 in assay [7], in assay [8], in assay [9], in assay [10], in assay [11] and in assay [12] was > 10 µM (inactive) in each case. Moreover, the GI50 in assay [13], in assay [14], in assay [15], in assay [20], in assay [16] and in assay [17] was > 10 µM (inactive) in each case. Moreover, the GI50 in assay [18] was > 10 µM (inactive).
`C=CC(=C)CCC(Br)C(C)(C)Br` (stereo not given): the GI50 in assay [1] was > 100 µM (inactive); in [2], 75.9 µM (inactive); in [3] it was 40.3 µM (inactive); in assay [4] it was > 100 µM (inactive); in assay [5], > 100 µM (inactive); in [6], 80.7 µM (inactive). In addition, the GI50 in assay [7] is > 100 µM (inactive); in assay [8], 15.6 µM (inactive); in assay [9], > 100 µM (inactive); in assay [10] it was 17.1 µM (inactive); in assay [11] it was 15.7 µM (inactive); in assay [12] it was 74 µM (inactive). Besides, the GI50 is > 100 µM (inactive) in [13]; 4.51 µM (inactive) in assay [14]; > 100 µM (inactive) in [15]; > 100 µM (inactive) in [20]; > 100 µM (inactive) in [17]; 88.1 µM (inactive) in assay [18].
Consider `O=c1cc(-c2cccnc2)[nH]c2cc3c(cc12)OCO3`, for which the GI50 in assay [1] is 3.3 µM (inactive); in assay [2] it was 4.59 µM (inactive); in assay [3] it was 5.07 µM (inactive); in assay [4], 6.59 µM (inactive); in [5], 33 µM (inactive); in assay [19], 10.7 µM (inactive). Moreover, the GI50 was 4.47 µM (inactive) in [6]; > 26.5 µM (inactive) in assay [7]; 17.1 µM (inactive) in assay [8]; 13 µM (inactive) in assay [9]; 7.35 µM (inactive) in assay [10]; 13.9 µM (inactive) in [12]. In addition, the GI50 in [13] was 11 µM (inactive); in [14], 29.6 µM (inactive); in assay [15] it was 2.29 µM (inactive); in [20], 11.1 µM (inactive); in assay [16] it was 4.67 µM (inactive); in assay [17], 5.58 µM (inactive). Besides, in [18], the GI50 is 34 µM (inactive).
On to `C=CCOC(=O)C1C2OC3(C(C(=O)OC)=C2C(=O)OC)c2ccccc2CCC13` (stereo not given), for which the GI50 in assay [1], in assay [2], in assay [3], in [4], in assay [5] and in assay [19] was > 10 µM (inactive) in each case. Besides, the GI50 in assay [6], in assay [7], in assay [8], in [9], in assay [10] and in assay [12] was > 10 µM (inactive) each time. Moreover, the GI50 in assay [13], in assay [14], in [15], in assay [20], in assay [16] and in assay [17] was > 10 µM (inactive) throughout. Further, the GI50 in assay [18] is > 10 µM (inactive).
